Source: patent US20210330611A1, “THERAPY FOR NEUROLOGICAL DISEASES/DISORDERS” (priority 2020, published 2021)
Structures can show the parent of a compound that is named as a salt. Where two headings read alike, the source gives them in different places.

Assays:
primary rat microglia [1] = test: Cell toxicity (dead cells, size <150 μm2) in LPS assay
[2] = system: fibrin- and LPS-induced microglia activation; test: cells; format: cell-based, rat
[3] = system: LPS-induced microglia activation; test: Image-based assay of LPS-induced microglia activation (HTS and dose response); format: cell-based, rat; settings: for inhibition at 10 µM: Rattus norvegicus, Microglia, read-out: LPS % inhibition
[4] = system: fibrin-induced microglia activation; test: Image-based assay of fibrin-induced microglia activation (HTS and dose response); format: cell-based, rat; settings: for inhibition at 10 µM: Rattus norvegicus, Microglia, read-out: Fibrin % inhibition
primary rat microglia [5] = test: Cell toxicity (dead cells, size <150 μm2) in coated fibrin (cFib) assay;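 further: share of dead cells sized under 150 µm2 at 10 µM in fibrin-stimulated microglia HTS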
[6] = primary microglia HTS, LPS stimulation, toxicity = cell size <150 μm2
[7] = quadrant by fibrin and LPS inhibition in HTS of 1907 compounds
[8] = 48 h, primary microglia HTS, LPS stimulation, activation = cell size >800 μm2
[9] = primary microglia HTS, fibrin stimulation, activation = cell size >800 μm2
[10] = primary microglia HTS, fibrin stimulation, toxicity = cell size <150 μm2
[11] = primary microglia HTS, LPS stimulation, decreased size (<150 μm^2) as marker of toxicity
[12] = 48 h, primary microglia HTS, LPS stimulation, increased cell size (>800 μm^2) as marker of activation
[13] = primary microglia HTS, fibrin stimulation, increased cell size (>800 μm^2) as marker of activation
[14] = primary microglia HTS, fibrin stimulation, decreased size (<150 μm^2) as marker of toxicity
[15] = primary microglia HTS, 10 μM, LPS assay, cell size <150 μm^2 as marker of toxicity
[16] = HTS of 1907 compounds, quadrant by fibrin and LPS inhibition
[17] = primary microglia HTS, 10 μM, LPS-stimulated, cell size >800 μm^2 as marker of activation
[18] = primary microglia HTS, 10 μM, fibrin-stimulated, cell size >800 μm^2 as marker of activation
[19] = primary microglia HTS, 10 μM, fibrin assay, cell size <150 μm^2 as marker of toxicity

Row | SMILES | LPS % cell toxicity (primary rat microglia [1]; [6]) [%] | Quadrant (FIG. 5b) [2, 7] | inhibition at 10 µM [3, 8] [%] | inhibition at 10 µM [4, 9] [%] | Fibrin % cell toxicity (primary rat microglia [5]; [10]) [%] | further results
1 | Cc1ccc(C)c(OCCCC(C)(C)C(=O)O)c1 [Gemfibrozil] | 0 | Q4 | 10 | -47 | 0 | –
2 | NC(=O)CCCCC1CCSS1 (stereo not shown) [Lipoamide] | 0 | Q4 | 8 | -18 | 0 | –
3 | CC(COc1ccccc1)NC(C)C(O)c1ccc(O)cc1 (stereo not shown) [Isoxsuprine Hydrochloride] | 0 | Q4 | 23 | -13 | 0 | –
4 | Cc1ccsc1/C=C/C1=NCCCN1C [Morantel Citrate] | – | Q4 | – | – | – | LPS % cell toxicity (primary rat microglia [1]; [11]): 0%; inhibition at 10 µM [3, 12]: 11%; inhibition at 10 µM [4, 13]: -11%; Fibrin % cell toxicity (primary rat microglia [5]; [14]): 1%
5 | C[N+](C)(C)CCCCCC[N+](C)(C)C [Hexamethonium] | – | Q2 | – | – | – | LPS % cell toxicity (primary rat microglia [1]; [11]): 2%; inhibition at 10 µM [3, 12]: 100%; inhibition at 10 µM [4, 13]: 108%; Fibrin % cell toxicity (primary rat microglia [5]; [14]): 9%
6 | C=CC1=C(C(=O)O)N2C(=O)[C@@H](NC(=O)/C(=N\OCC(=O)O)c3csc(N)n3)[C@H]2SC1 [Cefixime] | – | – | – | – | – | LPS % cell toxicity (primary rat microglia [1]; primary HTS, 10 μM, LPS assay, dead cells size <150 μm2): 0%; Quadrant (FIG. 5b) ([2]; primary HTS, 10 μM): Q4; inhibition at 10 µM ([3]; primary HTS, 10 μM, LPS-stimulated primary microglia): -8%; inhibition at 10 µM ([4]; primary HTS, 10 μM, fibrin-stimulated primary microglia): 0%; Fibrin % cell toxicity (primary rat microglia [5]; primary HTS, 10 μM, fibrin assay, dead cells size <150 μm2): 1%
7 | COc1c2occc2c(OC)c2c(=O)cc(C)oc12 [Khellin] | 0 | Q4 | 5 | -16 | 0 | –
8 | NCc1ccc(S(N)(=O)=O)cc1 [Mafenide] | – | Q4 | – | – | – | LPS % cell toxicity (primary rat microglia [1]; [11]): 0%; inhibition at 10 µM [3, 12]: -3%; inhibition at 10 µM [4, 13]: 10%; Fibrin % cell toxicity (primary rat microglia [5]; [14]): 1%
9 | C[CH2][Hg][S]c1ccccc1C(=O)O [Ethylmercurithiosalicylic acid] | – | Q2 | – | – | – | LPS % cell toxicity (primary rat microglia [1]; [11]): 95%; LPS % inhibition ([3]; primary microglia HTS, LPS stimulation, increased cell size (>800 μm^2) as marker of activation): 127%; Fibrin % inhibition [4, 13]: 109%; Fibrin % cell toxicity (primary rat microglia [5]; [14]): 92%
10 | c1ccc(CC2=NCCN2)cc1 [Tolazoline, Priscoline] | – | – | – | – | – | LPS % cell toxicity (primary rat microglia [1]; [15]): 0%; Quadrant (FIG. 5b) [2, 16]: Q4; LPS % inhibition [3, 17]: 17%; Fibrin % inhibition [4, 18]: −90%; Fibrin % cell toxicity (primary rat microglia [5]; [19]): 0%
11 | C[C@@H]1CC(=O)NN=C1c1ccc(NN=C(C#N)C#N)cc1 [Levosimendan] | 0 | Q4 | 42 | 46 | 1 | –
12 | CCN(CC)CCNC(=O)c1cc(Cl)c(N)cc1OC [Metoclopramide] | – | Q4 | – | – | – | LPS % cell toxicity (primary rat microglia [1]; [11]): 0%; inhibition at 10 µM [3, 12]: 12%; inhibition at 10 µM [4, 13]: -2%; Fibrin % cell toxicity (primary rat microglia [5]; [14]): 1%
13 | N=C(N)NCC1COC2(CCCCC2)O1 (stereo not shown) [Guanadrel] | 0 | Q4 | 5 | -1 | 1 | –
14 | O=C1C(O)=C(O)C(=O)C(O)=C1O [Tetraquinone] | – | – | – | – | – | LPS % cell toxicity (primary rat microglia [1]; [15]): 0%; Quadrant (FIG. 5b) [2, 16]: Q4; LPS % inhibition [3, 17]: 15%; Fibrin % inhibition [4, 18]: −10%; Fibrin % cell toxicity (primary rat microglia [5]; [19]): 0%
15 | CN(C)CCc1c[nH]c2ccc(C[C@H]3COC(=O)N3)cc12 [Zolmitriptan] | – | – | – | – | – | LPS % cell toxicity (primary rat microglia [1]; [15]): 0%; Quadrant (FIG. 5b) [2, 16]: Q4; inhibition at 10 µM [3, 17]: 18%; inhibition at 10 µM [4, 18]: 9%; Fibrin % cell toxicity (primary rat microglia [5]; [19]): 1%
16 | Cc1ccc(S(=O)(=O)NC(=O)NN2CC3CCCC3C2)cc1 (stereo not shown) [Gliclazide] | 0 | Q4 | 20 | 1 | 1 | –
17 | O=C1OC2(c3ccc(O)cc3Oc3cc(O)ccc32)c2ccccc21 [Fluorescein] | 0 | Q4 | 4 | -3 | 0 | –
